Results taken from patent US10202364B2, “Forms and compositions of an ERK inhibitor” (Celgene CAR LLC, priority 2014, dated 2019).
Read-outs that look alike come from different tables or passages of the source.

Tests used:
[1] = Free base competitive slurries / form conversion (XRPD and DSC); type: physicochemical; settings: compound 1 free base, stirred in methanol at room temperature for 24 hours
Experimental: Free Base Competitive Slurries:
Three competitive slurry experiments were performed:
1: Form A (20.0 mg)+Form C (20.4 mg) in 0.4 ml ethyl acetate
2: Form B (15.7 mg)+Form C (15.6 mg) in 0.3 ml ethyl acetate
3: Form A (13.3 mg)+Form B (11.5 mg) in 0.3 ml ethyl acetate
The three slurries were stirred vigorously for three days. Solids were then filtered and dried.
About 20 mg Form C was stirred in methanol (˜2 mL) at room temperature for 24 hours. Solids were filtered and dried.

[2] = Single oral dose pharmacokinetic (PK) study in dogs, fasted and fed; type: in vivo; settings: 15 mg/kg oral suspension; for AUC(0-t) / Cmax: both sexes, dog, in vivo, po, 15 mg/kg
Experimental: The pharmacokinetics of compound 1 (free base, administered to dosing group 1), compound 2 (phosphate salt, administered to dosing group 4), compound 4 (hydrochloride salt, administered to dosing group 2), compound 5 (bromide salt, administered to dosing group 5), and compound 6 (sulfate salt, administered to dosing group 3) were evaluated in dogs (2/sex/group) in a parallel design study. In addition, the effect of food on the systemic exposure to compounds 1, 2, 4, 5 and 6 was also evaluated. Compounds 1, 2, 4, 5 and 6 were orally administered at 15 mg/kg to dogs in a fasted state (overnight fast) on day 1 and administered under fed conditions (a meal was provided one hour prior to dosing) on day 9. Doses were administered as a suspension in 5% Captisol/0.2% Tween 80/0.05M Citrate buffer (compound 1) and 5% Captisol/0.2% Tween (compounds 2, 4, 5 and 6). Animals were habituated (days 2 to 8) to consume their entire daily ration (˜400 g) in 1 hour. Pharmacokinetic samples were collected on days 1 and 9 at 0, 0.5, 1, 2, 4, 6, 8, 12, and 24 hours after dosing.

[3] = Solubility in water at ambient temperature; type: physicochemical; settings: for pH at 48 hrs: pH of the solubility sample in water at 48 hrs; for Conc. (μg/mL) at 24 hours / Conc. (μg/mL) at 48 hours: water, ambient temperature, free base-equivalent value, HPLC/UV; for Conc. (μg/mL) at 24 hours: shaken 24 hours; for Conc. (μg/mL) at 48 hours: shaken 48 hours
Experimental: Each of compounds 1 through 9 were weighed into separate 8 mL clear glass vials. After addition of 3.2 mL of water, the vials were capped and shaken on an orbital shaker at 300 RPM at ambient temperature for 24 hours. The samples were removed from the shaker and the pH of each was measured using a calibrated pH meter. Next, a portion of the each sample was withdrawn and filtered using a PVDF-membrane syringe filter. The filtrate was analyzed using HPLC/UV with appropriate dilution. The solubility was reported as free base-equivalent value because the free base was used as the standard for HPLC analysis. The rest of the samples were shaken for another 24 hours for 48-hour solubility measurement using the same procedure. After the 48-hour solubility tests were run, the solid residues were recovered through filtration using 0.2 μm Nylon-membrane centrifuge tube filters at 14000 RPM for 5 min and analyzed using XRPD.
For the bis-phosphate complex and bis-sulfate salt, measurements were only performed at the 24-hour time point.

[4] = Hygroscopicity by Dynamic Vapor Sorption (DVS); type: physicochemical; settings: at 95% relative humidity
Experimental: Hygroscopicity was determined on a Surface Measurement Systems DVS-1 or DVS-Advantage Dynamic Vapor Sorption analyzer. A typical sample size of 5 to 20 mg was loaded into the DVS instrument sample pan and the sample was analyzed on a DVS automated sorption analyzer at room temperature. The relative humidity (RH) was increased from 0 or 5% to 90 or 95% RH at 5 or 10% RH steps. The RH was then decreased in a similar manner to accomplish a full absorption/desorption cycle. In some cases a second absorption/desorption cycle was performed.

[5] = Phosphate interconversions from polymorph screen (slurries, XRPD); type: physicochemical; settings: RT, 5 days
Text: Phosphate Interconversions

[6] = system: one or both of ERK1 and ERK2 kinases; settings: see Table A of the '230 publication; cited from earlier work
[7] = fasted, day 1, mean, read-out: AUClast, Day 1 (Fasted)
[8] = fasted, day 1, mean, read-out: Cmax, Day 1 (Fasted)
[9] = fed, day 9, mean, read-out: AUClast, Day 9 (Fed)
[10] = fed, day 9, mean, read-out: Cmax, Day 9 (Fed)

C=CC(=O)Nc1cc(C)ccc1Nc1nc(Nc2cc(OC)ncc2C)ncc1C(F)(F)F [Compound 1, Form C, N-(2-((2-((2-methoxy-5-methylpyridin-4-yl)amino)-5-(trifluoromethyl)pyrimidin-4-yl)amino)-5-methylphenyl)acrylamide]
form after slurry (XRPD and DSC) [1]: converted to Form B | AUClast, Day 1 (Fasted) ([2]; fasted, day 1, mean): 286 ng·h/mL | Cmax, Day 1 (Fasted) ([2]; fasted, day 1, mean): 0.0981 µg/mL | AUClast, Day 9 (Fed) ([2]; fed, day 9, mean): 1890 ng·h/mL | Cmax, Day 9 (Fed) ([2]; fed, day 9, mean): 0.293 µg/mL

C=CC(=O)Nc1cc(C)ccc1Nc1nc(Nc2cc(OC)ncc2C)ncc1C(F)(F)F.O=S(=O)(O)c1ccccc1 [Compound 9]
pH at 48 hrs [3]: 2.10 | Conc. (μg/mL) at 24 hours [3]: 173.63 µg/mL | Conc. (μg/mL) at 48 hours [3]: 143.49 µg/mL

C=CC(=O)Nc1cc(C)ccc1Nc1nc(Nc2cc(OC)ncc2C)ncc1C(F)(F)F.O=P(O)(O)O [Compound 2, Form A]
water uptake [4]: Up to 3.8% | AUC(0-t) [2, 7]: 1080 ng·h/mL | Cmax [2, 8]: 0.345 µg/mL | AUC(0-t) [2, 9]: 3880 ng·h/mL | Cmax [2, 10]: 0.79 µg/mL

C=CC(=O)Nc1cc(C)ccc1Nc1nc(Nc2cc(OC)ncc2C)ncc1C(F)(F)F [Compound 6]
pH at 48 hrs [3]: 1.98 | Conc. (μg/mL) at 24 hours [3]: 560.02 µg/mL | Conc. (μg/mL) at 48 hours [3]: 409.83 µg/mL

C=CC(=O)Nc1cc(C)ccc1Nc1nc(Nc2cc(OC)ncc2C)ncc1C(F)(F)F.O=P(O)(O)O [Form B]
XRPD Result ([5]; slurry in EtOH): Form A + free base | XRPD Result ([5]; slurry in MeCN): Form A | XRPD Result ([5]; slurry in MeCN/water (1:1)): free base (Form D) | XRPD Result ([5]; slurry in MeOH): free base (Form B) | XRPD Result ([5]; slurry in acetone): Form A

C=CC(=O)Nc1cc(C)ccc1Nc1nc(Nc2cc(OC)ncc2C)ncc1C(F)(F)F.Cl [Compound 4]
pH at 48 hrs [3]: 2.29 | Conc. (μg/mL) at 24 hours [3]: 162.33 µg/mL | Conc. (μg/mL) at 48 hours [3]: 134.08 µg/mL

C=CC(=O)Nc1cc(C)ccc1Nc1nc(Nc2cc(OC)ncc2C)ncc1C(F)(F)F [Compound 3]
Conc. (μg/mL) at 24 hours [3]: 113 µg/mL

C=CC(=O)Nc1cc(C)ccc1Nc1nc(Nc2cc(OC)ncc2C)ncc1C(F)(F)F.O=P(O)(O)O [Compound 2]
pH at 48 hrs [3]: 2.48 | Conc. (μg/mL) at 24 hours [3]: 19.40 µg/mL | Conc. (μg/mL) at 48 hours [3]: 91.69 µg/mL

Br.C=CC(=O)Nc1cc(C)ccc1Nc1nc(Nc2cc(OC)ncc2C)ncc1C(F)(F)F [Compound 5, Form A]
AUC(0-t) [2, 7]: 1680 ng·h/mL | Cmax [2, 8]: 0.393 µg/mL | AUC(0-t) [2, 9]: 5030 ng·h/mL | Cmax [2, 10]: 0.826 µg/mL

C=CC(=O)Nc1cc(C)ccc1Nc1nc(Nc2cc(OC)ncc2C)ncc1C(F)(F)F [Compound 6, Form A]
AUClast, Day 1 (Fasted) ([2]; fasted, day 1, mean): 1120 ng·h/mL | Cmax, Day 1 (Fasted) ([2]; fasted, day 1, mean): 0.364 µg/mL | AUClast, Day 9 (Fed) ([2]; fed, day 9, mean): 5590 ng·h/mL | Cmax, Day 9 (Fed) ([2]; fed, day 9, mean): 0.74 µg/mL

C=CC(=O)Nc1cc(C)ccc1Nc1nc(Nc2cc(OC)ncc2C)ncc1C(F)(F)F.Cl [Compound 4, Form A]
AUC(0-t) [2, 7]: 856 ng·h/mL | Cmax [2, 8]: 0.323 µg/mL | AUC(0-t) [2, 9]: 3350 ng·h/mL | Cmax [2, 10]: 0.818 µg/mL

C=CC(=O)Nc1cc(C)ccc1Nc1nc(Nc2cc(OC)ncc2C)ncc1C(F)(F)F [Compound 1, N-(2-((2-((2-methoxy-5-methylpyridin-4-yl)amino)-5-(trifluoromethyl)pyrimidin-4-yl)amino)-5-methylphenyl)acrylamide]
inhibition of one or both of ERK1 and ERK2 kinases [6]: covalent, irreversible inhibition | pH at 48 hrs [3]: 6.33 | Conc. (μg/mL) at 24 hours [3]: 0.07 µg/mL | Conc. (μg/mL) at 48 hours [3]: 0.05 µg/mL

Br.C=CC(=O)Nc1cc(C)ccc1Nc1nc(Nc2cc(OC)ncc2C)ncc1C(F)(F)F [Compound 5]
pH at 48 hrs [3]: 2.27 | Conc. (μg/mL) at 24 hours [3]: 190.63 µg/mL | Conc. (μg/mL) at 48 hours [3]: 207.42 µg/mL

C=CC(=O)Nc1cc(C)ccc1Nc1nc(Nc2cc(OC)ncc2C)ncc1C(F)(F)F.Cc1ccc(S(=O)(=O)O)cc1 [Compound 8]
pH at 48 hrs [3]: 2.00 | Conc. (μg/mL) at 24 hours [3]: 218.34 µg/mL | Conc. (μg/mL) at 48 hours [3]: 184.83 µg/mL

C=CC(=O)Nc1cc(C)ccc1Nc1nc(Nc2cc(OC)ncc2C)ncc1C(F)(F)F [Compound 7]
Conc. (μg/mL) at 24 hours [3]: 1170 µg/mL
